From patent publication US20090047221A1 (NIPRI LIMITED, priority 2004, published 2009)

Tested on: cancer cell line MDA-MB-468
Test: Combination index with known cancer drugs against proliferation (Calcusyn software)
Format: cell-based
Conditions: MDA-MB-468
From the text: A combination index of less than 0.1 indicates very strong synergy; a combination index of 0.1 to 0.3 indicates strong synergism; a combination index of 0.3 to 0.7 indicates synergism; a combination index of 0.7 to 0.85 indicates moderate synergism; a combination index of 0.85 to 0.9 indicates slight synergism and a combination index of 0.9 to 1.1 indicates only very slight synergism, said combination being close to merely additive.
The combination index may be calculated using calcusyn software.
Evidence of synergy was determined by calculation of the combination index using Calcusyn software.
The MTT assay was used initially to determine the anti-proliferative activity of the test compounds. In the MTT assay a yellow thiazolyl blue tetrazolium bromide salt (MTT) is reduced, in metabolically active cells, to form insoluble purple formazan crystals which are solubilised by the addition of dimethyl sulphoxide (DMSO). Absorbance readings can then be determined spectrophotometrically and a relationship established between control untreated cells and drug treated cells enabling the quantification of anti-proliferative changes as a result of drug treatment (Mosmann, 1983).
Wells containing medium only were used as blanks. Following the attachment period, cells were treated with appropriate drug concentrations (20 μl added per well). 40 mg/ml stock drug solutions, in DMSO, were stored at −20° C. and on the day of drug treatment working solutions of 4 mg/ml were prepared in medium which was further diluted to achieve final drug dilution volumes of 20 μl. Initial screening was determined over a concentration range of 1-200 μg/ml. For potent compounds the assay was repeated over a narrower concentration range to determine accurate IC50 values. Cells were exposed to drug for 96 h continual exposure (37° C., 5% CO2). Following the 96 h incubation, 50 μl MTT solution (1 g MTT/500 ml PBS) was added per well and the plates were further incubated for 4 h (37° C., 5% CO2). After incubation the MTT and medium was removed from the wells and 100 μl DMSO added per well. Plates were agitated on an orbital mixer platform (Stuart Scientific) for 10 minutes. Absorbance was measured at 570 nm on a Biotrak II (Amersham Bioscience) plate reader. IC50 values were calculated comparing control and drug treated cells.

## CC1(C)Cc2ccc(C(=O)N[C@@H](Cc3ccccc3)C(=O)O)c(O)c2C(=O)O1 [ALM-74, L-Phenyl Alanine Amide of Compound ALM-73]
Cisplatin 1 × 10^−2 mol/L, ALM-74 0.1 μg/ml
  Combination Index: 0.006
Cisplatin 1 × 10^−2 mol/L, ALM-74 0.5 μg/ml
  Combination Index: 0.008
Cisplatin 1 × 10^−2 mol/L, ALM-74 1.0 μg/ml
  Combination Index: 0.082
Cisplatin 1 × 10^−2 mol/L, ALM-74 5.0 μg/ml
  Combination Index: 0.130
Cisplatin 1 × 10^−3 mol/L, ALM-74 0.1 μg/ml
  Combination Index: No
Cisplatin 1 × 10^−3 mol/L, ALM-74 0.5 μg/ml
  Combination Index: No
Cisplatin 1 × 10^−3 mol/L, ALM-74 1.0 μg/ml
  Combination Index: 0.039
Cisplatin 1 × 10^−3 mol/L, ALM-74 5.0 μg/ml
  Combination Index: 0.346
Cisplatin 1 × 10^−4 mol/L, ALM-74 0.1 μg/ml
  Combination Index: No
Cisplatin 1 × 10^−4 mol/L, ALM-74 0.5 μg/ml
  Combination Index: No
Cisplatin 1 × 10^−4 mol/L, ALM-74 1.0 μg/ml
  Combination Index: 0.061
Cisplatin 1 × 10^−4 mol/L, ALM-74 5.0 μg/ml
  Combination Index: 1.031
Cisplatin 1 × 10^−5 mol/L, ALM-74 0.1 μg/ml
  Combination Index: No
Cisplatin 1 × 10^−5 mol/L, ALM-74 0.5 μg/ml
  Combination Index: No
Cisplatin 1 × 10^−5 mol/L, ALM-74 1.0 μg/ml
  Combination Index: 0.069
Cisplatin 1 × 10^−5 mol/L, ALM-74 5.0 μg/ml
  Combination Index: 0.778
Cisplatin 1 × 10^−6 mol/L, ALM-74 0.1 μg/ml
  Combination Index: No
Cisplatin 1 × 10^−6 mol/L, ALM-74 0.5 μg/ml
  Combination Index: No
Cisplatin 1 × 10^−6 mol/L, ALM-74 1.0 μg/ml
  Combination Index: 0.083
Cisplatin 1 × 10^−6 mol/L, ALM-74 5.0 μg/ml
  Combination Index: No
Cisplatin 1 × 10^−7 mol/L, ALM-74 0.1 μg/ml
  Combination Index: No
Cisplatin 1 × 10^−7 mol/L, ALM-74 0.5 μg/ml
  Combination Index: No
Cisplatin 1 × 10^−7 mol/L, ALM-74 1.0 μg/ml
  Combination Index: 0.092
Cisplatin 1 × 10^−7 mol/L, ALM-74 5.0 μg/ml
  Combination Index: No
Cisplatin 1 × 10^−8 mol/L, ALM-74 0.1 μg/ml
  Combination Index: No
Cisplatin 1 × 10^−8 mol/L, ALM-74 0.5 μg/ml
  Combination Index: No
Cisplatin 1 × 10^−8 mol/L, ALM-74 1.0 μg/ml
  Combination Index: 0.091
Cisplatin 1 × 10^−8 mol/L, ALM-74 5.0 μg/ml
  Combination Index: No
Cisplatin 1 × 10^−9 mol/L, ALM-74 0.1 μg/ml
  Combination Index: 0.895
Cisplatin 1 × 10^−9 mol/L, ALM-74 0.5 μg/ml
  Combination Index: No
Cisplatin 1 × 10^−9 mol/L, ALM-74 1.0 μg/ml
  Combination Index: 0.090
Cisplatin 1 × 10^−9 mol/L, ALM-74 5.0 μg/ml
  Combination Index: No
Doxorubicin 1 × 10^−4 mol/L, ALM-74 0.1 μg/ml
  Combination Index: No
Doxorubicin 1 × 10^−4 mol/L, ALM-74 0.5 μg/ml
  Combination Index: 0.277
Doxorubicin 1 × 10^−4 mol/L, ALM-74 1.0 μg/ml
  Combination Index: No
Doxorubicin 1 × 10^−4 mol/L, ALM-74 5.0 μg/ml
  Combination Index: No
Doxorubicin 1 × 10^−5 mol/L, ALM-74 0.1 μg/ml
  Combination Index: 0.001
Doxorubicin 1 × 10^−5 mol/L, ALM-74 0.5 μg/ml
  Combination Index: 0.007
Doxorubicin 1 × 10^−5 mol/L, ALM-74 1.0 μg/ml
  Combination Index: 0.376
Doxorubicin 1 × 10^−5 mol/L, ALM-74 5.0 μg/ml
  Combination Index: 1.069
Etoposide 1 × 10^−4 mol/L, ALM-74 0.1 μg/ml
  Combination Index: 0.355
Etoposide 1 × 10^−4 mol/L, ALM-74 0.5 μg/ml
  Combination Index: 0.402
Etoposide 1 × 10^−4 mol/L, ALM-74 1.0 μg/ml
  Combination Index: 0.307
Etoposide 1 × 10^−4 mol/L, ALM-74 5.0 μg/ml
  Combination Index: 0.349
Etoposide 1 × 10^−5 mol/L, ALM-74 0.1 μg/ml
  Combination Index: No
Etoposide 1 × 10^−5 mol/L, ALM-74 0.5 μg/ml
  Combination Index: 0.613
Etoposide 1 × 10^−5 mol/L, ALM-74 1.0 μg/ml
  Combination Index: 0.031
Etoposide 1 × 10^−5 mol/L, ALM-74 5.0 μg/ml
  Combination Index: 0.053
Etoposide 1 × 10^−6 mol/L, ALM-74 0.1 μg/ml
  Combination Index: No
Etoposide 1 × 10^−6 mol/L, ALM-74 0.5 μg/ml
  Combination Index: No
Etoposide 1 × 10^−6 mol/L, ALM-74 1.0 μg/ml
  Combination Index: 0.015
Etoposide 1 × 10^−6 mol/L, ALM-74 5.0 μg/ml
  Combination Index: 0.200
Etoposide 1 × 10^−7 mol/L, ALM-74 0.1 μg/ml
  Combination Index: No
Etoposide 1 × 10^−7 mol/L, ALM-74 0.5 μg/ml
  Combination Index: No
Etoposide 1 × 10^−7 mol/L, ALM-74 1.0 μg/ml
  Combination Index: 0.016
Etoposide 1 × 10^−7 mol/L, ALM-74 5.0 μg/ml
  Combination Index: 0.231
Etoposide 1 × 10^−8 mol/L, ALM-74 0.1 μg/ml
  Combination Index: No
Etoposide 1 × 10^−8 mol/L, ALM-74 0.5 μg/ml
  Combination Index: No
Etoposide 1 × 10^−8 mol/L, ALM-74 1.0 μg/ml
  Combination Index: 0.016
Etoposide 1 × 10^−8 mol/L, ALM-74 5.0 μg/ml
  Combination Index: 0.261
Etoposide 1 × 10^−9 mol/L, ALM-74 0.1 μg/ml
  Combination Index: No
Etoposide 1 × 10^−9 mol/L, ALM-74 0.5 μg/ml
  Combination Index: No
Etoposide 1 × 10^−9 mol/L, ALM-74 1.0 μg/ml
  Combination Index: 0.019
Etoposide 1 × 10^−9 mol/L, ALM-74 5.0 μg/ml
  Combination Index: 0.251
Etoposide 1 × 10^−10 mol/L, ALM-74 0.1 μg/ml
  Combination Index: 0.724
Etoposide 1 × 10^−10 mol/L, ALM-74 0.5 μg/ml
  Combination Index: No
Etoposide 1 × 10^−10 mol/L, ALM-74 1.0 μg/ml
  Combination Index: 0.022
Etoposide 1 × 10^−10 mol/L, ALM-74 5.0 μg/ml
  Combination Index: 0.265
Irinotecan 1 × 10^−3 mol/L, ALM-74 0.1 μg/ml
  Combination Index: 0.916
Irinotecan 1 × 10^−3 mol/L, ALM-74 0.5 μg/ml
  Combination Index: 0.121
Irinotecan 1 × 10^−3 mol/L, ALM-74 1.0 μg/ml
  Combination Index: No
Irinotecan 1 × 10^−3 mol/L, ALM-74 5.0 μg/ml
  Combination Index: No
Irinotecan 1 × 10^−4 mol/L, ALM-74 0.1 μg/ml
  Combination Index: 0.189
Irinotecan 1 × 10^−4 mol/L, ALM-74 0.5 μg/ml
  Combination Index: 0.302
Irinotecan 1 × 10^−4 mol/L, ALM-74 1.0 μg/ml
  Combination Index: 0.051
Irinotecan 1 × 10^−4 mol/L, ALM-74 5.0 μg/ml
  Combination Index: 0.051
Irinotecan 1 × 10^−5 mol/L, ALM-74 0.1 μg/ml
  Combination Index: No
Irinotecan 1 × 10^−5 mol/L, ALM-74 0.5 μg/ml
  Combination Index: No
Irinotecan 1 × 10^−5 mol/L, ALM-74 1.0 μg/ml
  Combination Index: 0.025
Irinotecan 1 × 10^−5 mol/L, ALM-74 5.0 μg/ml
  Combination Index: 0.616
Irinotecan 1 × 10^−6 mol/L, ALM-74 0.1 μg/ml
  Combination Index: 0.518
Irinotecan 1 × 10^−6 mol/L, ALM-74 0.5 μg/ml
  Combination Index: No
Irinotecan 1 × 10^−6 mol/L, ALM-74 1.0 μg/ml
  Combination Index: 0.055
Irinotecan 1 × 10^−6 mol/L, ALM-74 5.0 μg/ml
  Combination Index: 0.589
Irinotecan 1 × 10^−7 mol/L, ALM-74 0.1 μg/ml
  Combination Index: 0.067
Irinotecan 1 × 10^−7 mol/L, ALM-74 0.5 μg/ml
  Combination Index: No
Irinotecan 1 × 10^−7 mol/L, ALM-74 1.0 μg/ml
  Combination Index: 0.054
Irinotecan 1 × 10^−7 mol/L, ALM-74 5.0 μg/ml
  Combination Index: 0.726
Irinotecan 1 × 10^−8 mol/L, ALM-74 0.1 μg/ml
  Combination Index: 0.046
Irinotecan 1 × 10^−8 mol/L, ALM-74 0.5 μg/ml
  Combination Index: No
Irinotecan 1 × 10^−8 mol/L, ALM-74 1.0 μg/ml
  Combination Index: 0.066
Irinotecan 1 × 10^−8 mol/L, ALM-74 5.0 μg/ml
  Combination Index: 0.895
Irinotecan 1 × 10^−9 mol/L, ALM-74 0.1 μg/ml
  Combination Index: 0.049
Irinotecan 1 × 10^−9 mol/L, ALM-74 0.5 μg/ml
  Combination Index: No
Irinotecan 1 × 10^−9 mol/L, ALM-74 1.0 μg/ml
  Combination Index: 0.078
Irinotecan 1 × 10^−9 mol/L, ALM-74 5.0 μg/ml
  Combination Index: 0.973
Irinotecan 1 × 10^−10 mol/L, ALM-74 0.1 μg/ml
  Combination Index: 0.22
Irinotecan 1 × 10^−10 mol/L, ALM-74 0.5 μg/ml
  Combination Index: No
Irinotecan 1 × 10^−10 mol/L, ALM-74 1.0 μg/ml
  Combination Index: 0.086
Irinotecan 1 × 10^−10 mol/L, ALM-74 5.0 μg/ml
  Combination Index: 0.720
